Here are results for 13 compounds from patent publication US11795457B2, “Compositions and methods for treatment of Friedreich's Ataxia” (The Board of Regents of The University of Texas System, priority 2014, dated 2023).

Read-outs that look alike come from different tables or passages of the source. Oligonucleotides are written 5' to 3', each unit as a sugar letter and its base; * is a phosphorothioate linkage, no mark a phosphodiester; rarer units and linkages stand in square brackets, end groups in braces. Plain capitals give the bases only. l = locked nucleic acid (LNA); d = 2'-deoxy (DNA)

One series relates to FXN mRNA. In words: FXN mRNA expression by quantitative PCR in FRDA patient-derived fibroblast cells. Format: cell-based, human. Particulars: GM03816 cells, 5 μM, averaged quadruplicate experiments (FIG. 2B). As to the method: Tissue culture and transfection of synthetic nucleic acids. Fibroblast cells (Coriell Institute, GM03816 and GM02513) were cultured in minimum essential medium (MEM) supplemented with 10% FBS and 1% NEAA. All cells were grown at 37° C. in 5% Co2. Lipofectamine RNAiMAX (Invitrogen) was used to transfect siRNAs or LNA following the manufacturer's recommended protocol in OptiMEM low serum medium (Invitrogen). Growth media was changed to full medium after 24 h. Transfected cells were harvested 72 h after transfection for RNA extraction and qPCR analyses, and 96 h after transfection for western blot analysis. Sequences of siRNAs and RNAs used in these studies are listed in Table S1 and Table S2, respectively. Quantitative PCR. Identical volumes of RNA (representing approximately the same number of cells and ranging from 1-2 μg of RNA) were treated with 2 units of DNase I (Worthington) in DNase I buffer (10 mM Tris-HCl, pH 7.0, 10 mM NaCl, 2 mM MgCl2, 0.5 mM CaCl2)) for 15 min at room temperature to degrade any genomic DNA contamination. Afterwards, DNase I heat-inactivated at 75° C. for 10 min. Treated RNAs were reverse-transcribed using the High Capacity cDNA Reverse Transcription Kit (Applied Biosystems). Quantitative PCR (qPCR) was performed using SYBR Supermix (Biorad) with ˜50 ng of cDNA as template. Data were normalized relative to measured HPRT levels. […]

The subject of series [1] is histone H3 and H4 acetylation, FXN mRNA and protein. Particulars: lymphoid cells or primary lymphocytes; cited from earlier work.
In the next series the test system is FXN protein. In words: FXN protein expression by western blot in FRDA patient-derived fibroblast cells. Format: cell-based, human. Particulars: GM03816 cells; for FXN protein expression, LNAs: 12.5 nM, day 4 (FIGS. 4B-E). As to the method: (§1) Tissue culture and transfection of synthetic nucleic acids. Fibroblast cells (Coriell Institute, GM03816 and GM02513) were cultured in minimum essential medium (MEM) supplemented with 10% FBS and 1% NEAA. All cells were grown at 37° C. in 5% Co2. Lipofectamine RNAiMAX (Invitrogen) was used to transfect siRNAs or LNA following the manufacturer's recommended protocol in OptiMEM low serum medium (Invitrogen). Growth media was changed to full medium after 24 h. Transfected cells were harvested 72 h after transfection for RNA extraction and qPCR analyses, and 96 h after transfection for western blot analysis. Sequences of siRNAs and RNAs used in these studies are listed in Table S1 and Table S2, respectively.
Western blot analysis. Cell extracts were prepared using lysis buffer supplemented with 1% Protease Inhibitor Cocktail Set I (Calbiochem) as described previously (Punga & Buhler, 2010). Protein was separated on 4-20% gradient or 15% SDS-PAGE TGX pre-cast gels (BioRad). After gel electrophoresis, proteins were transferred to nitrocellulose membrane (Hybond-C Extra, GE Healthcare Life Sciences) at 100 V for 45-60 min. Membranes were blocked for 30 min at room temperature with 5% milk protein in PBS+0.05% TWEEN-20 (PBST).
Blocked membranes were incubated with the primary antibodies at 4° C. in PBST and 5% milk with rocking overnight: anti-FXN at 1:300 (Abcam, ab110328), anti-tubulin at 1:6000-10000 (Sigma-Aldrich, T5201). After primary antibody incubation, membranes were washed 3 times for 5 min at room temperature with PBST then incubated for 30-45 min at room temperature with HRP-conjugated anti-mouse (Jackson Laboratories, 715-035-150) in PBST+5% milk. Membranes were washed again 3× for 15 min in PBST at room temperature, then protein bands visualized using SuperSignal West Pico Chemiluminescent Substrate (Thermo Scientific). For quantification of protein levels from Western blots of cellular fractions, films were scanned and bands quantified using ImageJ.
HDAC inhibitor and mRNA stability assay. Histone deacetylase inhibitor BML-210 (Abcam) (5 μM) was applied to FRDA fibroblast cells (GM03816) by following the procedure described in Herman et al (2006)^27. Cells were collected for qPCR and Western blot analyses as mentioned above. For mRNA stability assay, cells were transfected with siGAA or CM as above, and 5 μg/mL actinomycin D (Sigma) was added with fresh media 3 day after transfection, and cells were collected at the indicated time points for RNA extraction and qPCR analysis.
In general terms: A western blot detects proteins with antibodies after separation by electrophoresis.

A further series deals with frataxin protein. Particulars: patients, daily oral administration, cited from earlier work.
The nature of the next series: Tm of siRNA duplex. It is filed as physicochemical.
The test system of the next series is FXN. The experiment in a line: FXN expression in FRDA patient-derived cells, mRNA or protein not specified. Format: cell-based, human. As to conditions: GM03816 cells, 25 nM (FIG. 3B). On the procedure: as §1
In series [2] the test system is interferon responsive genes. In words: qPCR of interferon responsive genes (off-target). Format: cell-based, human. As to conditions: GM03816 cells, 25 nM, 3 days after transfection, compared with CM control. As to the method: as §1
Quantitative PCR. Identical volumes of RNA (representing approximately the same number of cells and ranging from 1-2 μg of RNA) were treated with 2 units of DNase I (Worthington) in DNase I buffer (10 mM Tris-HCl, pH 7.0, 10 mM NaCl, 2 mM MgCl2, 0.5 mM CaCl2)) for 15 min at room temperature to degrade any genomic DNA contamination. Afterwards, DNase I heat-inactivated at 75° C. for 10 min. Treated RNAs were reverse-transcribed using the High Capacity cDNA Reverse Transcription Kit (Applied Biosystems). Quantitative PCR (qPCR) was performed using SYBR Supermix (Biorad) with ˜50 ng of cDNA as template. Data were normalized relative to measured HPRT levels.
Background: In qPCR the cycle at which signal appears reflects the starting amount.

With `Nc1ccccc1NC(=O)CCCCCCC(=O)Nc1ccccc1` [BML210], the “FXN mRNA levels” value in the series on FXN mRNA was “did not reveal a significant increase”. Also, the “Acetylation of histone H3 and H4 and FXN mRNA and protein” value in series [1] is “increased acetylation of histone H3 and H4 leading to upregulation of FXN mRNA and protein”. The FXN protein levels result in the series on FXN protein (5 μM, averaged quadruplicate experiments (FIG. 2C)) is reported as “did not reveal a significant increase”.
With `NC(=O)c1cccnc1` [nicotinamide], the “Increase of frataxin protein concentration” value is on record as 1.5 times with frataxin protein (3.8 g) and “doubling” in the series with frataxin protein (7-5 g).
For “PS-LNA11: LNA with PS backbone complementary to antisense RNA, GAAGAAGAAGAAGAAGAAG (SEQ ID NO: 33) (dG*lA*lA*dG*lA*lA*dG*lA*lA*dG*lA*lA*dG*lA*lA*dG*lA*lA*dG)”, the “FXN protein expression, LNAs” value in the series with FXN protein is reported as “inert”.
The same measure, in the same setting: next, “PS-LNA12: LNA with PS backbone complementary to antisense RNA, AAGAAGAAGAAGAAGAAGA (SEQ ID NO: 34) (dA*dA*lG*dA*dA*lG*dA*dA*lG*dA*dA*lG*dA*dA*lG*dA*dA*lG*dA)”: “inert”.
Still for that read-out and setting: next, “PS-LNA13: LNA with PS backbone complementary to antisense RNA, AGAAGAAGAAGAAGAAGAA (SEQ ID NO: 35) (lA*dG*lA*lA*dG*lA*lA*dG*lA*lA*dG*lA*lA*dG*lA*lA*dG*lA*lA)”: “inert”.
For the compound “scramble: duplex RNA in which the sequences of siGAA and siAAG are mixed: ss GAGAAAGAGAAAAGGAAAGdTdT (SEQ ID NO: 15), as SEQ ID NO: 16 (sense GAGAAAGAGAAAAGGAAAGNN; antisense CUUUCCUUUUCUCUUUCUCNN; dTdT overhangs; modified_base (20)..(21) n = thymidine; (20)..(21) n is a, c, g, t or u) [reference compound]”, the Tm for duplex in the series “Tm of siRNA duplex” is 66.13 ^+C.
For “siAAG5mm: similar to siAAG but has five mismatches: ss AACAATAATACGCAGAAGAdTdT (SEQ ID NO: 17), as SEQ ID NO: 18 (sense AACAATAATACGCAGAAGANN; antisense UCUUCUGCGUAUUAUUGUUNN; dTdT overhangs; modified_base (20)..(21) n = thymidine; (20)..(21) n is a, c, g, t or u) [reference compound]”, the Tm for duplex in the series “Tm of siRNA duplex” was 63.24 ^+C.
Same read-out and setting: next, “siAAG: duplex RNA: ss AAGAAGAAGAAGAAGAAGAdTdT (SEQ ID NO: 2), as UCUUCUUCUUCUUCUUCUUdTdT (SEQ ID NO: 10) (sense AAGAAGAAGAAGAAGAAGANN; antisense UCUUCUUCUUCUUCUUCUUNN; dTdT overhangs; modified_base (20)..(21) n = thymidine; (20)..(21) n is a, c, g, t or u)”: 64.67 ^+C.
The same measure, in the same setting: the result for “siAGA: duplex RNA: ss AGAAGAAGAAGAAGAAGAAdTdT (SEQ ID NO: 11), as UUCUUCUUCUUCUUCUUCUdTdT (SEQ ID NO: 12) (sense AGAAGAAGAAGAAGAAGAANN; antisense UUCUUCUUCUUCUUCUUCUNN; dTdT overhangs; modified_base (20)..(21) n = thymidine; (20)..(21) n is a, c, g, t or u)” reads 64.3 ^+C; that for “siExon2: duplex siRNA that targets FXN exon: ss GAGUGUCUAUUUGAUGAAUdTdT (SEQ ID NO: 13), as SEQ ID NO: 14 (sense GAGUGUCUAUUUGAUGAAUNN; antisense AUUCAUCAAAUAGACACUCNN; dTdT overhangs; modified_base (20)..(21) n = thymidine; (20)..(21) n is a, c, g, t or u) [reference compound]”, 64.53 ^+C.
Same read-out and setting: next, “siExon3: positive control for transfection efficiency targeting exon 3 of FXN: ss GACCACCUAUGAAAGACUAdTdT (SEQ ID NO: 21), as SEQ ID NO: 22 (sense GACCACCUAUGAAAGACUANN; antisense UAGUCUUUCAUAGGUGGUCNN; dTdT overhangs; modified_base (20)..(21) n = thymidine; (20)..(21) n is a, c, g, t or u) [reference compound]”: 73.65 ^+C.
For the compound “siGAA9,10mm: anti-GAA duplex RNA with central mismatches on both strands: ss GAAGAAGAUCAAGAAGAAGdTdT (SEQ ID NO: 19), as CUUCUUCUUAGUCUUCUUCdTdT (SEQ ID NO: 20) (sense GAAGAAGAUCAAGAAGAAGNN; antisense CUUCUUCUUAGUCUUCUUCDTDT; dTdT overhangs; modified_base (20)..(21) n = thymidine; (20)..(21) n is a, c, g, t or u)”, the Tm for duplex in the series “Tm of siRNA duplex” is reported as 54.4 ^+C. In addition, the results for the “Activation of FXN expression by duplex with central mismatches” value in the series with FXN (listed as siGAA 9.10 mm) and in the series with FXN (listed as siGAA9.10 mm) were “activates FXN expression at a level similar to the analogous fully complementary duplex RNA” and “activated FXN expression as well as fully complementary duplexes siGAA or siAAG”, respectively.
Turning to “siGAA: duplex RNA: ss GAAGAAGAAGAAGAAGAAGdTdT (SEQ ID NO: 1), as CUUCUUCUUCUUCUUCUUCdTdT (SEQ ID NO: 9) (sense GAAGAAGAAGAAGAAGAAGNN; antisense CUUCUUCUUCUUCUUCUUCNN; dTdT overhangs; modified_base (20)..(21) n = thymidine; (20)..(21) n is a, c, g, t or u)”, the Tm for duplex in the series “Tm of siRNA duplex” was 65.64 ^+C. For the same compound, the “mRNA expression of interferon responsive genes” value in series [2] is given as “does not induce expression of interferon responsive genes”. The “FXN protein expression (dose response profile)” value in the series on FXN protein (day 4 (FIG. 1F)) is given as “upregulation of FXN protein expression”.
